Data: US6750245B2, “C7 carbamate substituted taxanes” (FSU Research Foundation, Inc., priority 2000, dated 2004)

test system: HCT116; test: In vitro cytotoxicity measured by the cell colony formation assay; format: cell-based; details: HCT116 cells; drug concentration producing 50% inhibition of colony formation; incubated with drugs 72 h at 37° C.; colonies counted after 7 days; read-out: IN VITRO ID 50 (nm) HCT116
Experimental: In Vitro Cytotoxicity Measured by the Cell Colony Formation Assay
Four hundred cells (HCT116) were plated in 60 mm Petri dishes containing 2.7 mL of medium (modified McCoy's 5a medium containing 10% fetal bovine serum and 100 units/mL penicillin and 100 µg/mL streptomycin). The cells were incubated in a CO2 incubator at 37° C. for 5 h for attachment to the bottom of Petri dishes. The compounds identified in Example 2 were made up fresh in medium at ten times the final concentration, and then 0.3 mL of this stock solution was added to the 2.7 mL of medium in the dish. The cells were then incubated with drugs for 72 h at 37° C. At the end of incubation the drug-containing media were decanted, the dishes were rinsed with 4 mL of Hank's Balance Salt Solution (HBSS), 5 mL of fresh medium was added, and the dishes were returned to the incubator for colony formation. The cell colonies were counted using a colony counter after incubation for 7 days.

| SMILES | IC50 |
| --- | --- |
| CC(=O)O[C@@]12CO[C@@H]1C[C@H](OC(=O)NC1CCCCC1)[C@@]1(C)C(=O)[C@H](O)C3=C(C)[C@@H](OC(=O)[C@H](O)[C@@H](NC(=O)OC(C)(C)C)c4ccco4)C[C@@](O)([C@@H](OC(=O)c4ccccc4)C12)C3(C)C (some centres unmarked) [Compound 5373] | < 10 nM |
| CCNC(=O)O[C@H]1C[C@H]2OC[C@@]2(OC(C)=O)C2[C@H](OC(=O)c3ccccc3)[C@]3(O)C[C@H](OC(=O)[C@H](O)[C@@H](NC(=O)OC(C)(C)C)c4ccco4)C(C)=C([C@@H](O)C(=O)[C@@]21C)C3(C)C (some centres unmarked) [Compound 5393] | < 1 nM |
| CCNC(=O)O[C@H]1C[C@H]2OC[C@@]2(OC(C)=O)C2[C@H](OC(=O)c3ccccc3)[C@]3(O)C[C@H](OC(=O)[C@H](O)[C@@H](NC(=O)C=C(C)C)c4ccco4)C(C)=C([C@@H](O)C(=O)[C@@]21C)C3(C)C (some centres unmarked) [Compound 5588] | < 1 nM |
| C/C=C/C(=O)N[C@@H](c1ccco1)[C@@H](O)C(=O)O[C@H]1C[C@@]2(O)[C@@H](OC(=O)c3ccccc3)C3[C@](C)(C(=O)[C@H](O)C(=C1C)C2(C)C)[C@@H](OC(=O)Nc1ccccc1)C[C@H]1OC[C@@]31OC(C)=O (some centres unmarked) [Compound 5757] | < 10 nM |
| CC(=O)O[C@@]12CO[C@@H]1C[C@H](OC(=O)Nc1ccc(F)c(F)c1)[C@@]1(C)C(=O)[C@H](O)C3=C(C)[C@@H](OC(=O)[C@H](O)[C@@H](NC(=O)OC(C)(C)C)c4ccco4)C[C@@](O)([C@@H](OC(=O)c4ccccc4)C12)C3(C)C (some centres unmarked) [Compound 5415] | < 1 nM |
| CC=CC(=O)NC(c1ccco1)C(O)C(=O)OC1CC2(O)C(OC(=O)c3ccccc3)C3C4(OC(C)=O)COC4CC(OC(=O)Nc4ccc(F)c(F)c4)C3(C)C(=O)C(O)C(=C1C)C2(C)C (centres unmarked) [Compound 5800] | < 10 nM |
| C/C=C/C(=O)N[C@@H](c1ccco1)[C@@H](O)C(=O)O[C@H]1C[C@@]2(O)[C@@H](OC(=O)c3ccccc3)C3[C@](C)(C(=O)[C@H](O)C(=C1C)C2(C)C)[C@@H](OC(=O)NCC)C[C@H]1OC[C@@]31OC(C)=O (some centres unmarked) [Compound 5822] | < 10 nM |
| CCC(C)(C)OC(=O)N[C@@H](c1ccco1)[C@@H](O)C(=O)O[C@H]1C[C@@]2(O)[C@@H](OC(=O)c3ccccc3)C3[C@](C)(C(=O)[C@H](O)C(=C1C)C2(C)C)[C@@H](OC(=O)Nc1ccc(F)c(F)c1)C[C@H]1OC[C@@]31OC(C)=O (some centres unmarked) [Compound 6404] | < 10 nM |
| CCC(C)(C)OC(=O)N[C@@H](c1ccco1)[C@@H](O)C(=O)O[C@H]1C[C@@]2(O)[C@@H](OC(=O)c3ccccc3)C3[C@](C)(C(=O)[C@H](O)C(=C1C)C2(C)C)[C@@H](OC(=O)Nc1ccccc1)C[C@H]1OC[C@@]31OC(C)=O (some centres unmarked) [Compound 6399] | < 10 nM |
| CCCNC(=O)O[C@H]1C[C@H]2OC[C@@]2(OC(C)=O)C2[C@H](OC(=O)c3ccccc3)[C@]3(O)C[C@H](OC(=O)[C@H](O)[C@@H](NC(=O)OC(C)(C)C)c4ccco4)C(C)=C([C@@H](O)C(=O)[C@@]21C)C3(C)C (some centres unmarked) [Compound 5665] | > 50 nM |
| C/C=C/C(=O)N[C@@H](c1ccco1)[C@@H](O)C(=O)O[C@H]1C[C@@]2(O)[C@@H](OC(=O)c3ccccc3)C3[C@](C)(C(=O)[C@H](O)C(=C1C)C2(C)C)[C@@H](OC(=O)NC1CCCCC1)C[C@H]1OC[C@@]31OC(C)=O (some centres unmarked) [Compound 5895] | < 1 nM |
| CC(=O)O[C@@]12CO[C@@H]1C[C@H](OC(=O)Nc1ccccc1)[C@@]1(C)C(=O)[C@H](O)C3=C(C)[C@@H](OC(=O)[C@H](O)[C@@H](NC(=O)C=C(C)C)c4ccco4)C[C@@](O)([C@@H](OC(=O)c4ccccc4)C12)C3(C)C (some centres unmarked) [Compound 5535, N-Debenzoyl-N-isobutenyl-3′-desphenyl-3′-(2-furyl)-7-phenylcarbamoyl taxol] | < 1 nM |
| CC(=O)O[C@@]12CO[C@@H]1C[C@H](OC(=O)NC(C)(C)C)[C@@]1(C)C(=O)[C@H](O)C3=C(C)[C@@H](OC(=O)[C@H](O)[C@@H](NC(=O)OC(C)(C)C)c4ccco4)C[C@@](O)([C@@H](OC(=O)c4ccccc4)C12)C3(C)C (some centres unmarked) [Compound 5454] | < 10 nM |
| CC(=O)O[C@@]12CO[C@@H]1C[C@H](OC(=O)Nc1ccc(F)c(F)c1)[C@@]1(C)C(=O)[C@H](O)C3=C(C)[C@@H](OC(=O)[C@H](O)[C@@H](NC(=O)C=C(C)C)c4ccco4)C[C@@](O)([C@@H](OC(=O)c4ccccc4)C12)C3(C)C (some centres unmarked) [Compound 5522] | < 1 nM |
